One assay deals with CDK2/Cyclin E1 (Homo sapiens, UniProt P24941). Kind of assay: CDK2/Cyclin E1 Biochemical Assay (TR-FRET), 0.060 mM ATP. The conditions noted are these: 0.15 μM Rb (Ser780)-biotin substrate, pH7.0, 60 min preincubation, 120 min reaction, room temperature. Summed up: (§1)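 Kinase preincubated with compound (0–10 μM) 60 min at room temperature, then reaction started with ATP and 0.15 μM Rb (Ser780)-biotin peptide and run 120 min in HEPES pH 7.0 buffer with 50 mM MgCl2. Phospho-Rb detected by Eu-cryptate anti-pRb(Ser780)/streptavidin-XL665 TR-FRET (665/620 nm ratio); IC50 from four-parameter logistic fit.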

The target in another assay is CDK1/Cyclin B1 (Homo sapiens, UniProt P06493). Briefly: CDK1/Cyclin B1 Biochemical Assay (TR-FRET), 0.015 mM ATP. The conditions noted are these: 0.15 μM Rb (Ser780)-biotin substrate, pH7.0, 60 min preincubation, 120 min reaction, room temperature. Summed up: as §1
Sequence of CDK1/Cyclin B1 (P06493 whole entry): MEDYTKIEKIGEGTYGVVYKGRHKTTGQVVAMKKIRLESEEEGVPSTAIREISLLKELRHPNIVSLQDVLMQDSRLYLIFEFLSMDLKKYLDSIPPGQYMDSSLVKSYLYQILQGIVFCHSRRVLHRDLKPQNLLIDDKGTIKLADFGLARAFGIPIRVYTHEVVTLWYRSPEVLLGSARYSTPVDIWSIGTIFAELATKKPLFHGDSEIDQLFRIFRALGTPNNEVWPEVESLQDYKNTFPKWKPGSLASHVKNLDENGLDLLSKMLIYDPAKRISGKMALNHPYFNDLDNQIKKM
Sequence of CDK1/Cyclin B1 (P14635 whole entry partner): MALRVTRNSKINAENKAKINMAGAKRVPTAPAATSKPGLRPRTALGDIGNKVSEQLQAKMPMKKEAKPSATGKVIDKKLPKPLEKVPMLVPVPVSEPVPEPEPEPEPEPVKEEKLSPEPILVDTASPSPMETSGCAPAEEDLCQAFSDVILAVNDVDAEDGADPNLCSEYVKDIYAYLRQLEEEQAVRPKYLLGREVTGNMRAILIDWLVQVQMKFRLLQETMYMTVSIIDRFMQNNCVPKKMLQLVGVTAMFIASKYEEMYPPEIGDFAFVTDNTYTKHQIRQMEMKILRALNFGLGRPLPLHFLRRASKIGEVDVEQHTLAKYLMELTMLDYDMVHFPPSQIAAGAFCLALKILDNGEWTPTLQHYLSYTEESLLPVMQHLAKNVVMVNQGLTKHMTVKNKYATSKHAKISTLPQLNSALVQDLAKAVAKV

Some results are limits rather than exact numbers.

Regarding `O=C(NC1CCC1)O[C@H]1CC[C@@H](c2cc(Nc3ccc4c(c3)CS(=O)(=O)N4)n[nH]2)C1` (single isomer, unassigned) [Example 380b, cis-3-(3-((2,2-dioxido-1,3-dihydrobenzo[c]isothiazol-5-yl)amino)-1H-pyrazol-5-yl)cyclopentyl cyclobutylcarbamate], the IC50 against CDK2/Cyclin E1 came to 0.0009 µM; against CDK1/Cyclin B1, 0.023 µM.

With `CC(C)NC(=O)O[C@H]1CC[C@@H](c2cc(Nc3ccc4c(c3F)CN(C3CCCNC3=O)S4(=O)=O)n[nH]2)C1` (relative stereo) [Example 86, cis-3-(3-((4-fluoro-1,1-dioxido-2-(2-oxopiperidin-3-yl)-2,3-dihydrobenzo[d]isothiazol-5-yl)amino)-1H-pyrazol-5-yl)cyclopentyl isopropylcarbamate], the figures for the IC50 against CDK2/Cyclin E1 and against CDK1/Cyclin B1 were 0.0078 µM and 0.735 µM, respectively.

`CC(C)NC(=O)O[C@H]1CC[C@@H](c2cc(Nc3ccc4c(c3F)S(=O)(=O)N(C)C4)n[nH]2)C1` (relative stereo) [Example 190, cis-3-(3-((7-fluoro-2-methyl-1,1-dioxido-2,3-dihydrobenzo[d]isothiazol-6-yl)amino)-1H-pyrazol-5-yl)cyclopentyl isopropylcarbamate]: the IC50 came out at 0.0081 µM against CDK2/Cyclin E1 and 0.328 µM at CDK1/Cyclin B1.

`CC1(NC(=O)O[C@H]2CC[C@@H](c3cc(Nc4ccc5c(c4F)CS(=O)(=O)N5CCO)n[nH]3)C2)CCOC1` (relative stereo) [Example 393, cis-3-(3-((4-fluoro-1-(2-hydroxyethyl)-2,2-dioxido-1,3-dihydrobenzo[c]isothiazol-5-yl)amino)-1H-pyrazol-5-yl)cyclopentyl(3-methyltetrahydrofuran-3-yl)carbamate]: the IC50 against CDK2/Cyclin E1 was 0.0019 µM; against CDK1/Cyclin B1, 0.119 µM.

On to `C[C@@H](CO)NC(=O)O[C@H]1CC[C@@H](c2cc(Nc3ccc4c(c3F)CNS4(=O)=O)n[nH]2)C1` (single isomer, unassigned) [Example 328a], for which the IC50 against CDK2/Cyclin E1 came to 0.01 µM; at CDK1/Cyclin B1, 0.315 µM.

Consider `CN1Cc2c(ccc(Nc3cc([C@@H]4CC[C@H](OC(=O)N[C@H]5CC[C@@](C)(O)CC5)C4)[nH]n3)c2F)S1(=O)=O` (relative stereo) [Example 169, cis-3-(3-((4-fluoro-2-methyl-1,1-dioxido-2,3-dihydrobenzo[d]isothiazol-5-yl)amino)-1H-pyrazol-5-yl)cyclopentyl((1s,4s)-4-hydroxy-4-methylcyclohexyl)carbamate], for which the half-inhibitory concentration (IC50) was determined as 0.0074 µM on CDK2/Cyclin E1 and 0.471 µM against CDK1/Cyclin B1.

With `CC(C)NC(=O)O[C@H]1CC[C@@H](c2cc(Nc3ccc4c(c3F)CN(CC(O)CO)S4(=O)=O)nn2CC(O)CO)C1` (relative stereo) [Example 72, cis-3-(1-(2,3-dihydroxypropyl)-3-((2-(2,3-dihydroxypropyl)-4-fluoro-1,1-dioxido-2,3-dihydrobenzo[d]isothiazol-5-yl)amino)-1H-pyrazol-5-yl)cyclopentyl isopropylcarbamate], the IC50 at CDK2/Cyclin E1 was 5.91 µM; on CDK1/Cyclin B1, greater than 10 µM.

With `CC1(NC(=O)O[C@H]2CC[C@@H](c3cc(Nc4cc5c(cc4F)S(=O)(=O)NC5)n[nH]3)C2)CC1` (single isomer, unassigned) [Example 44a, cis-3-(3-((6-fluoro-1,1-dioxido-2,3-dihydrobenzo[d]isothiazol-5-yl)amino)-1H-pyrazol-5-yl)cyclopentyl(1-methylcyclopropyl)carbamate], the IC50 against CDK2/Cyclin E1 was 0.0013 µM; at CDK1/Cyclin B1, 0.138 µM.

On to `CC(C)NC(=O)O[C@H]1CC[C@@H](c2cc(Nc3ccc4c(c3F)CN(CC(C)(C)O)S4(=O)=O)n[nH]2)C1` (relative stereo) [Example 76, cis-3-(3-((4-fluoro-2-(2-hydroxy-2-methylpropyl)-1,1-dioxido-2,3-dihydrobenzo[d]isothiazol-5-yl)amino)-1H-pyrazol-5-yl)cyclopentyl isopropylcarbamate], for which the values for the IC50 on CDK2/Cyclin E1 and against CDK1/Cyclin B1 were 0.01 µM and 0.416 µM, respectively.

Source of the values: US20260297080A1, “BICYCLIC COMPOUNDS AS CDK INHIBITORS” (BeOne Medicines I GmbH, priority 2022, published 2026).
